# Laboratory results as given in patent US10457811B2, “Surface-modified calcium oxide” (Kalkfabrik Netstal AG, priority 2012, dated 2019).
# Counter-ions that a name gives are not always drawn.
# Test system: Erwinia amylovora strain 385 (Ea385)
# Experiment: Fire blight test on inoculated apple blossoms (Gala)
# Type: in vivo
# Conditions: 0.06% spray solution, 1 hour after inoculation, reduction of infestation after 6 days
# Experimental: Finely pulverized CaO was coated with stearic acid (5% by weight of stearic acid relative to CaO) and was tested, as dust on apple blossoms, against fire blight. The standardized tests were carried out at an institute certified therefor (bio-ferm Research GmbH, DE). Apple blossoms of the Gala type were placed, with the pedicel, in a 10% saccharose solution and were incubated in a humid chamber. Inoculation/pathogen: Erwinia amylovora strain 385 (Ea385), as a bacterial suspension of fresh cultures with 10 million cells per milliliter, was sprayed onto the blossoms. Infested blossoms were treated, 1 hour after inoculation, with the coated CaO as dust (test series) or were subjected to the standard treatment (streptomycin sulfate 0.06% as spray solution; control and benchmark). Evaluation: The blossoms were investigated after 6 days, and analyzed in terms of the pathogen-typical features of an infection (slime spots). 39% of the blossoms without treatment were infested with fire blight. The reduction of the infestation by means of the corresponding treatment was evaluated, in terms of the efficacy of the treatment.
structure (smiles),measurement,value
"[H]/N=C(/N)N[C@H]1[C@H](O)[C@@H](O)[C@H](O[C@@H]2O[C@@H](C)[C@](O)(C=O)[C@H]2O[C@@H]2O[C@@H](CO)[C@H](O)[C@@H](O)[C@@H]2NC)[C@@H](N/C(N)=N\[H])[C@@H]1O [Streptomycin sulfate, streptomycin sulfate]",Efficacy of the treatment,68%
